Source: paper PMC3914206

How the values were obtained:
Assay type in all cases: binding
Conditions in all cases: Compound Concentration 10 µM
panel of 442 kinases [1] = target: T1, panel of 442 kinases (Homo sapiens, UniProt P24941)
T1 construct: purchased KINOMEscan
Source text: (§1) We assessed the selectivity of members of this scaffold using the KINOMEscan methodology across a near comprehensive panel of 442 kinases [[18,27]].

panel of 442 kinases [2] = target: T2, panel of 442 kinases (Homo sapiens, UniProt Q15759)
T2 construct: purchased KINOMEscan
Source text: as §1

panel of 442 kinases [3] = target: T3, panel of 442 kinases (Homo sapiens, UniProt P21860)
T3 construct: purchased KINOMEscan
Source text: as §1

panel of 442 kinases [4] = target: T4, panel of 442 kinases (Homo sapiens, UniProt P00533, L861Q)
T4 construct: purchased KINOMEscan
Source text: as §1

T4 sequence (P00533 25-1210 L861Q): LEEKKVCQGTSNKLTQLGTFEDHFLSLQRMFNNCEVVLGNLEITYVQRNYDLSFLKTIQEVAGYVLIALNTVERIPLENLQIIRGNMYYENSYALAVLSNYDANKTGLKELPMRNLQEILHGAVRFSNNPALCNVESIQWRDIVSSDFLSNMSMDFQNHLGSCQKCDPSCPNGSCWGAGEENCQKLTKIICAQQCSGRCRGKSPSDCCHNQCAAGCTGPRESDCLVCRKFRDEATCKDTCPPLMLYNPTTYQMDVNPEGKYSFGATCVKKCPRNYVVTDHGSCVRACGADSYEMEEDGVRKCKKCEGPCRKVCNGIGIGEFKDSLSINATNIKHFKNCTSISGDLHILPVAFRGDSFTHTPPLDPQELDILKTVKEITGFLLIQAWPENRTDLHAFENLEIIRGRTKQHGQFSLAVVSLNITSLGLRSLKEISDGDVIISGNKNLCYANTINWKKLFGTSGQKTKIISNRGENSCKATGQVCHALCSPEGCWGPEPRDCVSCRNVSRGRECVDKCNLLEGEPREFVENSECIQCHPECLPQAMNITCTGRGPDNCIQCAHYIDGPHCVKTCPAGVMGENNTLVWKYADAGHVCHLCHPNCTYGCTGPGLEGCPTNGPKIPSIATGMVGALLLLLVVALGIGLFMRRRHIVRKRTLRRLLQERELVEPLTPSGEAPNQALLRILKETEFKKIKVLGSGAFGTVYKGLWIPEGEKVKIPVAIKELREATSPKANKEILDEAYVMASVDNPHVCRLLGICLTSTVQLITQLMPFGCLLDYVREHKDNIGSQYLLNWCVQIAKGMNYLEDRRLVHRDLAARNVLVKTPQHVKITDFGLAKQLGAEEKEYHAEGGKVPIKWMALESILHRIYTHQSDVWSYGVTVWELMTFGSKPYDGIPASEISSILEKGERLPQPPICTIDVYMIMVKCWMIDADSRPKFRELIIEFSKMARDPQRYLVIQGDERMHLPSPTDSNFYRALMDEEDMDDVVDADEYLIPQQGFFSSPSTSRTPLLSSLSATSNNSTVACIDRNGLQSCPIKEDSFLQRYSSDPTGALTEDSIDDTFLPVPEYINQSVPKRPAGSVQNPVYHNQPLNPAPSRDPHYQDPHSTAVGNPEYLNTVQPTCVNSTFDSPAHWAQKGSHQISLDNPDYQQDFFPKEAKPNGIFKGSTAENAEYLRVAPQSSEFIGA
T3 sequence (P21860 20-1342): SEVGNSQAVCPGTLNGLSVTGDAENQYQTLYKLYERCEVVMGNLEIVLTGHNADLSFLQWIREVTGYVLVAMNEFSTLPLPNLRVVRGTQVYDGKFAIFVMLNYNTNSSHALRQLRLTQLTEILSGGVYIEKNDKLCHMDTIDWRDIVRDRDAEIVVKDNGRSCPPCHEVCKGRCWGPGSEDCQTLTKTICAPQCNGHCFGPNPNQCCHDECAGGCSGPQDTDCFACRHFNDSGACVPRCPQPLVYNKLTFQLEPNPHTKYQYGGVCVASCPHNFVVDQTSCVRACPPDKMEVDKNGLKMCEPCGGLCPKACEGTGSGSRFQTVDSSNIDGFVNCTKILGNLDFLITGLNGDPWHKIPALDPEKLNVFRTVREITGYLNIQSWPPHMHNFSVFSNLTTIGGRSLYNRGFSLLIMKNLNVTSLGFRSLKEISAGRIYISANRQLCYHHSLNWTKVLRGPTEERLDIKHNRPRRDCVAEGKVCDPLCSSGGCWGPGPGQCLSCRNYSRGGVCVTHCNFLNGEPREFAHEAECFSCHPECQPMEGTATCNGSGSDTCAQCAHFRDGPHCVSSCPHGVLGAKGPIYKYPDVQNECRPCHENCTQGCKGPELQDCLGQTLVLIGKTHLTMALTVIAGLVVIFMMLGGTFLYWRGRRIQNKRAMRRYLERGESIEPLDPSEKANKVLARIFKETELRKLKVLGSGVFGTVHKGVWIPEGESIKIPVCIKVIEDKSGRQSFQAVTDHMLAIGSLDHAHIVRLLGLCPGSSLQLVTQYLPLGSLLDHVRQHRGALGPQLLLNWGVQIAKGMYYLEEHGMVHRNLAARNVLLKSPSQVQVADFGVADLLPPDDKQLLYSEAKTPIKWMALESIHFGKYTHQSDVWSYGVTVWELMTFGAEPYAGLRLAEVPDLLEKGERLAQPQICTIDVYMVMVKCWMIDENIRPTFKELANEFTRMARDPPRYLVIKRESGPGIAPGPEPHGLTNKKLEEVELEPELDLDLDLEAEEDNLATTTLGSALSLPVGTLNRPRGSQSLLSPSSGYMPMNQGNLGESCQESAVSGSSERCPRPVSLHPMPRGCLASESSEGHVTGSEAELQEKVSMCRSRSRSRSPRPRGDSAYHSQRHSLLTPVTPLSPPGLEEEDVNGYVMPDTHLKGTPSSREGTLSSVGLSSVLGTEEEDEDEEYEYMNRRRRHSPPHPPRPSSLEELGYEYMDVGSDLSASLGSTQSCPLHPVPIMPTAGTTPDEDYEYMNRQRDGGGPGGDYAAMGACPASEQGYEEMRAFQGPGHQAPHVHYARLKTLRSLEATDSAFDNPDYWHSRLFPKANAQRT
T2 sequence (Q15759 whole entry): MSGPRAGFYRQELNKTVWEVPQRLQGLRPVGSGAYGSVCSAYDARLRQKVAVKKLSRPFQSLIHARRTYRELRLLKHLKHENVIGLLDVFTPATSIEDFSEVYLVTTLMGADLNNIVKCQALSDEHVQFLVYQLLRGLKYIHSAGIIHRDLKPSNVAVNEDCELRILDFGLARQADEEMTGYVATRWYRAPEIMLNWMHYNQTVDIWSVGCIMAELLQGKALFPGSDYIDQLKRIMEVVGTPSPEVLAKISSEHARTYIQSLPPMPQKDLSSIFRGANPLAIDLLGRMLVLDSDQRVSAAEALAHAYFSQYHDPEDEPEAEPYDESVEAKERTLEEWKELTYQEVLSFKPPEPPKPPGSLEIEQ

Row | SMILES | KINOMEscan: CDK2 (panel of 442 kinases [1]) | KINOMEscan: p38-beta (panel of 442 kinases [2]) | KINOMEscan: ERBB3 (panel of 442 kinases [3]) | KINOMEscan: EGFR(L861Q) (panel of 442 kinases [4])
1 | CCOc1cc(C(=O)N2CCC(N3CCN(C)CC3)CC2)ccc1Nc1ncc2c(n1)N(C1CCCC1)c1ccccc1C(=O)N2C [Compound 26] | 100 | 81 | 100 | 100
2 | COc1cc(C(=O)N2CCC(N3CCN(C)CC3)CC2)ccc1Nc1ncc2c(n1)N(C1CCCC1)c1ccccc1C(=O)N2C [Compound 25, 11-cyclopentyl-2-((2-methoxy-4-(4-(4-methylpiperazin-1-yl)piperidine-1-carbonyl)phenyl)amino)-5-methyl-5H-benzo[e]pyrimido[5,4-b][1,4]diazepin-6(11H)-one] | 96 | 56 | 100 | 89
3 | COc1cc(C(=O)N2CCC(N3CCN(C)CC3)CC2)ccc1Nc1ncc2c(n1)N1CCc3cccc(c31)C(=O)N2C [Compound 24] | 95 | 56 | – | 82
4 | COc1cc(C(=O)N2CCC(N3CCN(C)CC3)CC2)ccc1Nc1ncc2c(n1)N(C)c1ccccc1C(=O)N2C [15 (LRRK2-IN-1)] | 100 | 60 | 100 | 100
